In patent US12195455B2, “Succinate and fumarate acid addition salts of piperazine derivatives” (Asceneuron SA, priority 2018, dated 2025):

Description: The free base Example 35 (10 mg) was weighed into glass vials and water was added in 100 μL portions up to 1 mL then 0.5 mL portions thereafter. Solubility was assessed visually following a brief period of equilibration.

C[C@@H](c1ccc2scnc2c1)N1CCN(c2ncc([S@@](C)(=N)=O)cn2)CC1 (single isomer, unassigned) [Example 35]
visual aqueous solubility: < 1250 µg/mL
